Experiments:
[1] = system: WM266.4 melanoma cell line (mutant BRAF); assay: Assay C - SRB cell proliferation assay, WM266.4; assay type: cell-based; settings: Homo sapiens, WM 266-4, 120 h; WM266.4, 5 days growth
Experimental: (§1) Values for the blank (no cells) are subtracted from all values. The DMSO controls are set as 100% activity and assay points (the response) are calculated as a percentage of the DMSO control. Data are plotted using Graphpad Prism software and a non-linear regression line is calculated using a variable slope sigmoidal dose-response equation: Y=Bottom+[Top−Bottom]/[1+10^((Log EC50−X)*HillSlope)] where X is the logarithm of concentration and Y is the response). The IC50 generated by this procedure is the concentration of the drug that produces a percentage control fluorescence value midway between the saturation, and zero-effect plateaus. Three independent assays are usually performed and the mean IC50 is reported. Biological Methods—Assay C—SRB Cell Proliferation Assay (SRB GI50)
(§2) Cell lines (e.g., WM266.4 and A375M melanoma cell lines; SW620 colorectal carcinoma cell line) are routinely cultured in DMEM or RPMI1640 supplemented with 10% foetal bovine serum, at 37° C., in 10% CO2 water saturated atmosphere. Cultures are maintained in exponential growth phase by sub-culturing before having become confluent (3-5 day intervals). Single cell suspensions are prepared by harvesting an 80 cm^2 tissue culture flask with 5 mL commercial trypsin EDTA. After 5 minutes, the detached cells are mixed with 5 mL fully complemented culture medium and centrifugally pelleted (1000 rpm for 7 minutes). After aspirating the supernatant, the cell pellet is re-suspended in 10 mL fresh medium and the cells fully disaggregated by drawing the whole volume up/down 5 times through a 19-gauge needle. The concentration of the cells is determined using a haemocytometer ( 1/10 dilution). A suitable volume to give at least a 2-fold excess for the number of tests being conducted, typically 100-200 mL, is prepared by diluting the cell suspension to 10,000-40,000/mL, and 100 μL/well dispensed into 96 well plates using a programmable 8-channel peristaltic pump, giving 1000-4000 cells/well, leaving column 12 blank. The plates are returned to the incubator for 24 hours to allow the cells to re-attach.
(§3) The compounds being tested are prepared at 10 mM in DMSO. Aliquots (24 μL) are diluted into 1.2 mL culture medium giving 200 μM, and 10 serial dilutions of 3× performed by transferring 80 μL to 160 μL. Aliquots (100 μL) of each dilution are added to the wells, using an 8-channel pipettor, thus performing a final further 2× dilution, and giving doses ranging from 100 μM to 0.005 μM. Column 11 receives plain culture medium only. Each compound is tested in quadruplicate, each replicate being the average of four wells.
(§4) After a further 5 days growth, the plates are emptied, and the cells are fixed in 10% trichloroacteic acid for 30 minutes at 4° C. After thorough rinsing in running tap water, the plates are dried, and stained by adding 50 μL of a solution of 0.1% sulphorhodamine-B in 1% acetic acid, for 10 minutes at room temperature. The stain is poured out and the plates thoroughly rinsed under a stream of 1% acetic acid, thus removing unbound stain, and dried. The bound stain is taken into solution by addition of 100 μL Tris buffer pH 8, followed by 10 minutes on a plate-shaker (approximately 500 rpm). The absorbance at 540 nm in each well (being proportional to the number of cells present) is determined using a plate reader.
(§5) After averaging the blank values in column 12 this was subtracted from all values, and results expressed as a percentage of the untreated value (column 11). […] The GI50 generated by this procedure is the concentration of the drug that produces a percentage control A540 midway between the saturation, and zero-effect plateaus.

[2] = system: A375M melanoma cell line (mutant BRAF); assay: Assay C - SRB cell proliferation assay, A375M; assay type: cell-based; settings: Homo sapiens, 120 h, 5 days growth
Experimental: as §1, §2, §3, §4, §5

[3] = system: SW620 human colorectal carcinoma cells (mutant RAS) xenograft; assay: Xenograft study, mutant RAS SW620; assay type: in vivo, mice; settings: for Effect on tumour volume as compared to the control (in words) / Factor of tumour volume reduction as compared to the control: SW620 xenograft; for Factor of tumour volume reduction as compared to the control: over the timescale of the study; for Ratio of: Tumour Volume (Treatment)/Tumour Volume (Control) (mutant RAS SW620 xenograft): athymic mice, gavage once daily for 24 doses
Experimental: Biological Methods—Xenograft Studies
SW620 human colorectal carcinoma cells (mutant RAS, 7×10^7) or A375M human melanoma cells (mutant BRAF, 10^7) were inoculated sub-cutaneously in suspension (0.2 mL) into the right flank of female Crl:CD1-Foxn1nu athymic mice. Groups were assigned to treatment following stratified allocation of tumour volumes. Treatment with test compound began between days 11-14 post-cell administration. For gavage, a suspension (DMSO:water, 1:19, v/v at 10 m L/kg) was administered. Control animals received a similar dosage of vehicle (DMSO:water, 1:19, v/v). Treatment with test compound was continued once daily for 24 doses.

| Structure (SMILES) | GI50 [1] | GI50 [2] | Effect on tumour volume as compared to the control (in words) [3] | Factor of tumour volume reduction as compared to the control [3] | Ratio of: Tumour Volume (Treatment)/Tumour Volume (Control) (mutant RAS SW620 xenograft) [3] |
| --- | --- | --- | --- | --- | --- |
| Cc1ccc(-n2nc(C(C)(C)C)cc2NC(=O)Nc2ccc(Oc3ccnc4[nH]c(=O)n(C)c34)c3ccccc23)cc1 [BB-02, 1-(1-N-p-tolyl-3-tert-butyl-pyrazol-5-yl)-3-(4-(2-oxo-2,3-dihydro-1-N-methyl-1H-imidazo[4,5-b]pyridin-7-yl-oxy)naphthalen-1-yl)urea] | 16 nM | 101 nM | statistically significant efficacy | about 1.5 | 0.66 |
| Cn1c(=O)[nH]c2nccc(Oc3ccc(NC(=O)Nc4cc(C(C)(C)C)nn4-c4ccccc4)c(F)c3)c21 [AA-01, 1-(3-Tert-butyl-1-phenyl-1H-pyrazol-5-yl)-3-(2-fluoro-4-(1-N-methyl-2-oxo-2,3-dihydro-1H-imidazo[4,5-b]pyridin-7-yloxy)phenyl)urea] | 52 nM | 138 nM | statistically significant efficacy | about 3 | 0.34 |
| Cn1c(=O)[nH]c2nccc(Oc3ccc(NC(=O)Nc4cc(C(C)(C)C)nn4-c4ccccc4)c4ccccc34)c21 [BB-01, 1-(3-Tert-butyl-1-phenyl-1H-pyrazol-5-yl)-3-(4-(1-methyl-2-oxo-2,3-dihydro-1H-imidazo[4,5-b]pyridin-7-yloxy)naphthalen-1-yl)urea] | 8 nM | 52 nM | – | – | – |

Further lines, with some results ahead:

| GI50 [1] | GI50 [2] | Structure (SMILES) | Effect on tumour volume as compared to the control (in words) [3] | Factor of tumour volume reduction as compared to the control [3] | Ratio of: Tumour Volume (Treatment)/Tumour Volume (Control) (mutant RAS SW620 xenograft) [3] |
| --- | --- | --- | --- | --- | --- |
| 66 nM | 250 nM | Cc1ccc(-n2nc(C(C)(C)C)cc2NC(=O)Nc2ccc(Oc3ccnc4[nH]c(=O)n(C)c34)cc2)cc1 [XX-02, 1-(1-N-p-tolyl-3-tert-butyl-pyrazol-5-yl)-3-(4-(2-oxo-2,3-dihydro-1-N-methyl-1H-imidazo[4,5-b]pyridin-7-yl-oxy)phenyl)urea] | relatively little effect | – | 0.95 |
| 20 nM | 307 nM | CC(C)(C)c1cc(NC(=O)Nc2ccc(Oc3ccnc4[nH]c(=O)[nH]c34)cc2)n(-c2ccc(F)cc2)n1 [XX-04, 1-[5-tert-Butyl-2-(4-fluoro-phenyl)-2H-pyrazol-3-yl]-3-[4-(2-oxo-2,3-dihydro-1H-imidazo[4,5-b]pyridin-7-yloxy)-phenyl]urea] | relatively little effect | – | 0.87 |
| 390 nM | 1130 nM | CC(C)(C)c1cc(NC(=O)Nc2ccc(Oc3ccnc4[nH]c(=O)[nH]c34)cc2)n(-c2ccccc2)n1 [XX-01, 1-(5-Tert-butyl-2-phenyl-2H-pyrazol-3-yl)-3-[4-(2-oxo-2,3-dihydro-1H-imidazo[4,5-b]pyridin-7-yloxy)-phenyl]-urea] | relatively little effect | – | >1 |
| 33 nM | 247 nM | Cn1c(=O)n(C)c2c(Oc3ccc(NC(=O)Nc4cc(C(C)(C)C)nn4-c4ccccc4)c(F)c3)ccnc21 [XX-03, 1-(3-Tert-butyl-1-phenyl-1H-pyrazol-5-yl)-3-(4-(1,3-dimethyl-2-oxo-2,3-dihydro-1H-imidazo[4,5-b]pyridin-7-yloxy)-2-fluorophenyl)urea] | relatively little effect | – | 0.97 |

— patent US9120789B2, “1-(5-tert-butyl-2-phenyl-2H-pyrazol-3-yl)-3-[2-fluoro-4-(1-methyl-2-oxo-2,3-dihydro-1H-imidazo[4,5-b]pyridin-7-yloxy)-phenyl]-urea and related compounds and their use in therapy” (CANCER RESEARCH TECHNOLOGY LIMITED, priority 2010, dated 2015)
